Measured values from patent US20090068290A1, “BIFEPRUNOX DOSES FOR TREATING SCHIZOPHRENIA” (priority 2006, published 2009).

Key:
Format in all cases: in vivo, human
[1] = system: adult subjects with schizophrenia; test: PANSS responder rates, Clinical Study Three; settings: for PANSS 20% definition response rate No, % / PANSS 20% definition response rate Yes, %: Week 6/Endpoint, LOCF; for 20% PANSS responder rate: Endpoint LOCF
Procedure: There were four treatment arms in this study, approximately 144 subjects per arm. […] After completing the Single-Blind Placebo Lead-in Period of at least three days, bifeprunox-treated subjects were titrated from 0.25 mg up to 20 mg/day or 30 mg/day according to a standardized titration scheme over a seven- or eight-day period, respectively. When the assigned dose was reached, subjects were maintained at that dose for the remainder of the six week treatment period. […] Subjects were hospitalized (if not already inpatients) after eligibility for study entry was verified, starting from the Screening Visit until at least 10 days after Baseline. Subjects could be hospitalized longer than 10 days if considered medically necessary by the Investigator. Rating scale assessments for efficacy and abnormal movement disorders were done weekly except for Week 5. Safety assessments were performed at Screening, during treatment and at the end of the study. Subject satisfaction with study medication was assessed at Week 6. Samples of whole blood were obtained at Weeks 2, 4, and 6 for determination of bifeprunox in plasma.
CLINICAL STUDY THREE. A PANSS responder was defined as a subject whose PANSS total score decreased by 20% or more from Baseline to Endpoint. As exploratory analyses, responder rates were also analyzed using a 30%, 35%, 40%, and 50% definition of responder.

[2] = system: adult subjects with schizophrenia; test: PANSS responder rate, Clinical Study Two; settings: for PANSS 20% responder rate / PANSS 30% responder rate: Endpoint LOCF; for PANSS Responder at Endpoint, 30% Definition Responder, No / PANSS Responder at Endpoint, 30% Definition Responder, Yes / PANSS Responder at Week 6/Endpoint, 20% Definition, No / PANSS Responder at Week 6/Endpoint, 20% Definition, Yes: LOCF, ITT
Procedure: Notable differences were also observed between the 30 mg bifeprunox group and placebo for the change from baseline to endpoint in PANSS general psychopathology subscale score, BPRS total score, BPRS psychosis cluster score, PANSS responder rate, and CGI-I responder rate. […] A CGI-I responder refers to a subject who was categorized as “very much improved” or “much improved” in the CGI Global Improvement scale at endpoint. […]
Subjects who completed this study had the option to continue in the long-term. […] Risperidone-treated subjects were titrated from 2 mg to 6 mg daily over a three-day period and were subsequently maintained at 6 mg/day for the remainder of the treatment period. […] Blood samples were also obtained at Screening/Baseline, Week 3, and Week 6 for clinical laboratory assessments. […]

[3] = system: adult subjects with schizophrenia; test: PANSS general psychopathology subscale score, Clinical Study One; settings: for Change from Baseline in PANSS General Psychopathology Subscale Score, Mean (S.D.) / Change from Baseline in PANSS General Psychopathology Subscale Score, Median / Trt Effect (versus placebo), PANSS General Psychopathology Subscale Score: ITT population; for Trt Effect (versus placebo), PANSS General Psychopathology Subscale Score: ANCOVA
Procedure: (§1) There were five treatment groups in this study. […] Study medication was administered once daily. After Baseline measurements were performed, the titration phase was begun. Bifeprunox treated subjects were titrated up to 5 mg, 10 mg or 20 mg according to a standardized titration schedule (Day 1: 0.125 mg, Day 2: 0.25 mg, Day 3: 0.5 mg, Day 4: 1.0 mg, Day 5: 2.0 mg, Day 6: 5.0 mg, Day 7: 10.0 mg, Day 8: 20 mg). When the assigned dose was reached, subjects were maintained at that dose for the remainder of the six-week treatment period.
(§2) The change in the Positive and Negative Symptom Scale (PANSS) total score, from baseline to endpoint, was the primary outcome measure. Secondary efficacy measures included: PANSS positive, PANSS negative, PANSS general psychopathology (GPP) score, PANSS-derived Brief Psychiatric Rating Scale (BPRS) score, Clinical Global Impressions-Severity of Illness (CGI-S), CGI-Improvement (CGI-I) scores, and responder rates. Safety and tolerability evaluations included extrapyramidal symptoms (EPS), weight gain, lipid profile, and serum prolactin.

[4] = system: adult subjects with schizophrenia; test: CGI Improvement score, Clinical Study One; parameters: Actual Value of CGI Improvement Score, Median / CGI Improvement Score, Trt Effect: scale not given here; settings: for Actual Value of CGI Improvement Score, Mean (S.D.) / Actual Value of CGI Improvement Score, Median: 5 mg
Procedure: as §1, §2

[5] = Bifeprunox 10 mg, Endpoint LOCF
[6] = Bifeprunox 20 mg, Endpoint LOCF

O=c1[nH]c2cccc(N3CCN(Cc4cccc(-c5ccccc5)c4)CC3)c2o1 [Bifeprunox, 7-[4-([1,1′-biphenyl]-3-ylmethyl)-1-piperazinyl]-2(3H)-benzoxazolone]
PANSS 20% definition response rate No, % ([1]; 20 mg): 58%
PANSS 20% definition response rate Yes, % ([1]; 20 mg): 42%
PANSS 20% definition response rate No, % ([1]; 30 mg): 61%
PANSS 20% definition response rate Yes, % ([1]; 30 mg): 39%
20% PANSS responder rate ([1]; bifeprunox 20 mg): 42%
20% PANSS responder rate ([1]; bifeprunox 30 mg): 39%
PANSS 20% responder rate ([2]; bifeprunox 30 mg): 36%
PANSS 30% responder rate ([2]; bifeprunox 30 mg): 24%
PANSS Responder at Endpoint, 30% Definition Responder, No ([2]; bifeprunox 30 mg): 106 (76%) n (%)
PANSS Responder at Endpoint, 30% Definition Responder, Yes ([2]; bifeprunox 30 mg): 34 (24%) n (%)
PANSS Responder at Week 6/Endpoint, 20% Definition, No ([2]; bifeprunox 30 mg): 89 (64%) n (%)
PANSS Responder at Week 6/Endpoint, 20% Definition, Yes ([2]; bifeprunox 30 mg): 51 (36%) n (%)
PANSS 20% responder rate ([2]; bifeprunox 40 mg): 30%
PANSS 30% responder rate ([2]; bifeprunox 40 mg): 22%
PANSS Responder at Endpoint, 30% Definition Responder, No ([2]; bifeprunox 40 mg): 110 (78%) n (%)
PANSS Responder at Endpoint, 30% Definition Responder, Yes ([2]; bifeprunox 40 mg): 31 (22%) n (%)
PANSS Responder at Week 6/Endpoint, 20% Definition, No ([2]; bifeprunox 40 mg): 99 (70%) n (%)
PANSS Responder at Week 6/Endpoint, 20% Definition, Yes ([2]; bifeprunox 40 mg): 42 (30%) n (%)
Change from Baseline in PANSS General Psychopathology Subscale Score, Mean (S.D.) ([3]; Bifeprunox 5 mg, Endpoint LOCF): −4.4 (9.4)
Change from Baseline in PANSS General Psychopathology Subscale Score, Median ([3]; Bifeprunox 5 mg, Endpoint LOCF): −5
Trt Effect (versus placebo), PANSS General Psychopathology Subscale Score ([3]; Bifeprunox 5 mg, Endpoint LOCF): −2.2
Change from Baseline in PANSS General Psychopathology Subscale Score, Mean (S.D.) ([3]; Bifeprunox 5 mg, Week 1, LOCF): −1.7 (7.6)
Change from Baseline in PANSS General Psychopathology Subscale Score, Median ([3]; Bifeprunox 5 mg, Week 1, LOCF): −2
Change from Baseline in PANSS General Psychopathology Subscale Score, Mean (S.D.) ([3]; Bifeprunox 5 mg, Week 2, LOCF): −2.8 (8.1)
Change from Baseline in PANSS General Psychopathology Subscale Score, Median ([3]; Bifeprunox 5 mg, Week 2, LOCF): −2
Change from Baseline in PANSS General Psychopathology Subscale Score, Mean (S.D.) ([3]; Bifeprunox 5 mg, Week 3, LOCF): −3.3 (8.8)
Change from Baseline in PANSS General Psychopathology Subscale Score, Median ([3]; Bifeprunox 5 mg, Week 3, LOCF): −3
Change from Baseline in PANSS General Psychopathology Subscale Score, Mean (S.D.) ([3]; Bifeprunox 5 mg, Week 4, LOCF): −3.7 (9.1)
Change from Baseline in PANSS General Psychopathology Subscale Score, Median ([3]; Bifeprunox 5 mg, Week 4, LOCF): −4
Change from Baseline in PANSS General Psychopathology Subscale Score, Mean (S.D.) [3, 5]: −2.0 (9.2)
Change from Baseline in PANSS General Psychopathology Subscale Score, Median [3, 5]: −1
Trt Effect (versus placebo), PANSS General Psychopathology Subscale Score [3, 5]: 0.4
Change from Baseline in PANSS General Psychopathology Subscale Score, Mean (S.D.) ([3]; Bifeprunox 10 mg, Week 1, LOCF): −0.9 (6.2)
Change from Baseline in PANSS General Psychopathology Subscale Score, Median ([3]; Bifeprunox 10 mg, Week 1, LOCF): 0
Change from Baseline in PANSS General Psychopathology Subscale Score, Mean (S.D.) ([3]; Bifeprunox 10 mg, Week 2, LOCF): −1.5 (7.7)
Change from Baseline in PANSS General Psychopathology Subscale Score, Median ([3]; Bifeprunox 10 mg, Week 2, LOCF): −2
Change from Baseline in PANSS General Psychopathology Subscale Score, Mean (S.D.) ([3]; Bifeprunox 10 mg, Week 3, LOCF): −1.7 (9.0)
Change from Baseline in PANSS General Psychopathology Subscale Score, Median ([3]; Bifeprunox 10 mg, Week 3, LOCF): −1
Change from Baseline in PANSS General Psychopathology Subscale Score, Mean (S.D.) ([3]; Bifeprunox 10 mg, Week 4, LOCF): −1.4 (8.8)
Change from Baseline in PANSS General Psychopathology Subscale Score, Median ([3]; Bifeprunox 10 mg, Week 4, LOCF): −1
Change from Baseline in PANSS General Psychopathology Subscale Score, Mean (S.D.) [3, 6]: −5.1 (8.8)
Change from Baseline in PANSS General Psychopathology Subscale Score, Median [3, 6]: −5
Trt Effect (versus placebo), PANSS General Psychopathology Subscale Score [3, 6]: −2.8
Change from Baseline in PANSS General Psychopathology Subscale Score, Mean (S.D.) ([3]; Bifeprunox 20 mg, Week 1, LOCF): −3.0 (6.4)
Change from Baseline in PANSS General Psychopathology Subscale Score, Median ([3]; Bifeprunox 20 mg, Week 1, LOCF): −2
Change from Baseline in PANSS General Psychopathology Subscale Score, Mean (S.D.) ([3]; Bifeprunox 20 mg, Week 2, LOCF): −4.4 (7.5)
Change from Baseline in PANSS General Psychopathology Subscale Score, Median ([3]; Bifeprunox 20 mg, Week 2, LOCF): −5
Change from Baseline in PANSS General Psychopathology Subscale Score, Mean (S.D.) ([3]; Bifeprunox 20 mg, Week 3, LOCF): −5.2 (7.9)
Change from Baseline in PANSS General Psychopathology Subscale Score, Median ([3]; Bifeprunox 20 mg, Week 3, LOCF): −6
Change from Baseline in PANSS General Psychopathology Subscale Score, Mean (S.D.) ([3]; Bifeprunox 20 mg, Week 4, LOCF): −5.2 (8.4)
Change from Baseline in PANSS General Psychopathology Subscale Score, Median ([3]; Bifeprunox 20 mg, Week 4, LOCF): −6
PANSS general psychopathology score, estimate of the treatment effect ([3]; bifeprunox 5 mg, LOCF): −2.2
PANSS general psychopathology score, estimate of the treatment effect ([3]; bifeprunox 10 mg, LOCF): 0.4
PANSS general psychopathology score, estimate of the treatment effect ([3]; bifeprunox 20 mg, LOCF): −2.8
CGI Improvement Score, Trt Effect ([4]; 5 mg versus placebo, Endpoint LOCF): −0.28
Actual Value of CGI Improvement Score, Mean (S.D.) ([4]; Endpoint LOCF): 3.33 (1.37)
Actual Value of CGI Improvement Score, Median ([4]; Endpoint LOCF): 3.0
Actual Value of CGI Improvement Score, Mean (S.D.) ([4]; Week 1, LOCF): 3.76 (0.85)
Actual Value of CGI Improvement Score, Median ([4]; Week 1, LOCF): 4.0
Actual Value of CGI Improvement Score, Mean (S.D.) ([4]; Week 2, LOCF): 3.46 (1.10)
